Results published in patent US12570666B2, “Furoindazole derivatives” (Bayer Aktiengesellschaft, priority 2019, dated 2026).

How the values were obtained:
[1] = system: mouse CFA model of inflammation; assay: In vivo assay 2: CFA pain model, dynamic weight-bearing (DWB); settings: DWB 24 h after CFA
Experimental: In Vivo Assay 2: Effects of Example 3-2 in the CFA Pain Model
The efficacy of Example 3-2 in vivo on inflammatory pain was measured in inflamed paws after administration of complete Freund's adjuvant (CFA) (24 h) in the dynamic weight-bearing (DWB) model. The effects of repeated preventive treatment with Example 3-2 on pain following repeated oral administration (3×) in the mouse CFA model of inflammation were investigated using a preventive setting. The GPR84 antagonist Example 3-2 (20 or 60 mg/kg, 3× doses) was administered 2 h before injection of CFA and 6-8 h later at day 0. At 24 h after CFA application, the third dose of Example 3-2 was given 2 h before DWB testing. Statistical analysis was performed with one-way analysis of variance, followed by Bonferroni's multiple comparison test against vehicle control groups using the GraphPad PRISM software, *p<0.05.

[2] = target: T1, human GPR84 receptor (Homo sapiens, UniProt Q9NQS5); assay: cAMP HTRF assay for identification of cellular GPR84 antagonists; assay type: cell-based; settings: CHO-K1 cells stably expressing human GPR84; Forskolin + agonist 6-OAU (EC80); average or median values
T1 construct: frozen aliquots prepared by acCELLerate; host or cells: CHO-K1
T1 sequence (Q9NQS5 whole entry): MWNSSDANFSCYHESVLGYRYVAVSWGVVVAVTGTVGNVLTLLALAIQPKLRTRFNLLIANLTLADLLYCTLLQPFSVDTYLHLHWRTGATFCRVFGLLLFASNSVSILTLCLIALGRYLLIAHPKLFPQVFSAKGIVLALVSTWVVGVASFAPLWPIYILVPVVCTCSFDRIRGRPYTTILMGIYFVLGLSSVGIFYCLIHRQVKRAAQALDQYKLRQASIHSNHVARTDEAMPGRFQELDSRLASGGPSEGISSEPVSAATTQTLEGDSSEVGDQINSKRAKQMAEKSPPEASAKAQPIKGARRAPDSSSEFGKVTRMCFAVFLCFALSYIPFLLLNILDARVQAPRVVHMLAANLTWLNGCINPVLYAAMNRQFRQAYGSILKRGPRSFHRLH
Summary of the method: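 Forskolin-stimulated CHO-K1 cells stably expressing human GPR84, agonist-suppressed cAMP measured by HTRF (665/620 ratio) after lysis. Compounds at 11 concentrations, 20 μM to 0.07 nM, duplicate; normalized to DMSO and no-agonist controls; IC50 by 4-parameter fit.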

[3] = system: rat DHT-PCOS model; assay: In vivo assay 1: DHT driven rat PCOS model; set-up: species or system Han-Wistar rats; settings: 26 days of drug administration
Experimental: In Vivo Assay 1: GPR84 Ligand and Antagonist Characterization in PCOS Model
The efficacy of Example 3-2 in vivo on the treatment of POCS was measured in the DHT driven rat PCOS model. At 3 weeks of age, Han-Wistar rats were randomly divided into three experimental groups [control (n=10), DHT (n=10), and DHT plus Example 3-2 (n=10)] and implanted s.c. with 60-d continuous-DHT-release pellets (80 μg/d, Bayer AG, Germany). The dose of DHT was chosen to mimic the hyperandrogenic state in women with PCOS. Controls received identical pellets lacking the bioactive DHT molecule. Animal received a standard chow, only for the last week standard show was replaced by a high fat diet. Rats were weighted bi-weekly from 21 d of age. The study was concluded after 26 days of drug administration. […] Statistical analysis was performed with one-way analysis of variance, followed by Bonferroni's multiple comparison test against vehicle control groups using the GraphPad PRISM software, *p<0.05.

Row | IC50 [2] | Structure (SMILES) | other results
1 | 63 nM | CCc1ccc(Cn2cc3c(n2)-c2c(oc(C(=O)NC[C@@H]4CCCO4)c2C)CC3)cn1 [Example 186] | 
2 | 9 nM | CCC(=O)C(=O)N1CCC(Cn2cc3c(n2)-c2c(oc(C(=O)NC[C@@H]4COCCO4)c2C(F)(F)F)C[C@H]3C)CC1 (single isomer, unassigned) [Example 296, (4R or 4S)-N-{[(2R)-1,4-dioxan-2-yl]methyl}-4-methyl-2-{[1-(2-oxobutanoyl)piperidin-4-yl]methyl}-8-(trifluoromethyl)-4,5-dihydro-2H-furo[2,3-g]indazole-7-carboxamide] | 
3 | 3 nM | C[C@@H]1Cc2oc(C(=O)NCc3cnc(Cl)cn3)c(C(F)(F)F)c2-c2nn(C[C@H]3COCCO3)cc21 (single isomer, unassigned) [Example 323, (4R or 4S)—N-[(5-chloropyrazin-2-yl)methyl]-2-{[(2S)-1,4-dioxan-2-yl]methyl}-4-methyl-8-(trifluoromethyl)-4,5-dihydro-2H-furo[2,3-g]indazole-7-carboxamide] | 
4 | 89 nM | Cn1cnc(CNC(=O)c2oc3c(c2C(F)(F)F)-c2nn(C[C@H]4COCCO4)cc2CC3)c1 [Example 229, 2-[(2S)-1,4-Dioxan-2-ylmethyl]-N-[(1-methyl-1H-imidazol-4-yl)methyl]-8-(trifluormethyl)-4,5-dihydro-2H-furo[2,3-g]indazol-7-carboxamide] | 
5 | 16 nM | O=C(NCc1nccs1)c1oc2c(c1C(F)(F)F)-c1nn(C[C@H]3COCCO3)cc1CC2 [Example 226, 2-[(2S)-1,4-Dioxan-2-ylmethyl]-N-(1,3-thiazol-2-ylmethyl)-8-(trifluormethyl)-4,5-dihydro-2H-furo[2,3-g]indazol-7-carboxamide] | 
6 | 9 nM | Cc1ccc(Cn2cc3c(n2)-c2c(oc(C(=O)NC[C@@H]4COCCO4)c2C(F)(F)F)CC3C)cn1 (mixture of isomers) [Example 252, (4±)-N-{I(2R)-1,4-dioxan-2-yl]methyl)-4-methyl-2-[(6-methylpyridin-3-yl)methyl]-8-(trifluoromethyl)-4,5-dihydro-2H-furo[2,3-g]indazole-7-carboxamide] | 
7 | 1600 nM | O=C(NCCc1c[nH]cn1)c1oc2c(c1C(F)(F)F)-c1nn(C[C@H]3COCCO3)cc1CC2 [Example 235, 2-[(2S)-1,4-Dioxan-2-ylmethyl]-N-[2-(1 H-imidazol-4-yl)ethyl]-8-(trifluormethyl)-4,5-dihydro-2H-furo[2,3-g]indazol-7-carboxamide] | 
8 | 61 nM | O=C(NC[C@@H]1CCCO1)c1oc2c(c1C(F)F)-c1nn(C[C@H]3COCCO3)cc1CC2 [Example 245, 8-(difluoromethyl)-2-{[(2S)-1,4-dioxan-2-yl]methyl}-N-{[(2S)-oxolan-2-yl]methyl}-4,5-dihydro-2H-furo[2,3-g]indazole-7-carboxamide] | 
9 | 13 nM | O=C(NC[C@@H]1COCCO1)c1oc2c(c1C(F)(F)F)-c1nn(C[C@H]3COCCO3)cc1C1(CC1)C2 [Example 169, N-{[(2R)-1,4-dioxan-2-yl]methyl}-2′-{[(2S)-1,4-dioxan-2-yl]methyl}-8′-(trifluoromethyl)-2′,5′-dihydrospiro[cyclopropane-1,4′-furo[2,3-g]indazole]-7′-carboxamide] | 
10 | 270 nM | Cc1c(C(=O)NC[C@@H]2COCCO2)oc2c1-c1nn(C(=O)N(C)C)cc1C1(CC1)C2 [Example 154] | 
11 | 881 nM | O=C(NCc1cncs1)c1oc2c(c1C(F)(F)F)-c1nn(C[C@H]3COCCO3)cc1CC2 [Example 230, 2-[(2S)-1,4-Dioxan-2-ylmethyl]-N-(1,3-thiazol-5-ylmethyl)-8-(trifluormethyl)-4,5-dihydro-2H-furo[2,3-g]indazol-7-carboxamide] | 

Second part, the molecule before the results:

Row | Structure (SMILES) | IC50 [2] | other results
12 | Cc1c(C(=O)NC[C@@H]2CCCO2)oc2c1-c1nn(Cc3ccccn3)cc1CC2 [Example 3-2, 8-methyl-2-(pyridin-2-ylmethyl)-N-[(2S)-tetrahydrofuran-2-ylmethyl]-4,5-dihydro-2H-furo[2,3-g]indazole-7-carboxamide] | 110 nM | Weight distribution (% weight on injected paw) mean +/- SD ([1]; 3x 20 mg p.o., vehicle 43 +/- 20, not significant vs. vehicle group): 60 +/− 21 (not significant vs. vehicle group) %; Weight distribution (% weight on injected paw) mean +/- SD ([1]; 3x 60 mg p.o., vehicle 43 +/- 20, significant vs. vehicle group): 83 +/− 18 (significant vs. vehicle group) %; weight gain ([3]; DHT driven rat PCOS model): gained less weight compared to the untreated control; Relative weight vs. Vehicle control ([3]; rat DHT-PCOS model, p.o. 60 mg/kg morning dose + s.c. 60 mg/kg evening dose, DHT-Vehicle group 111%): 103% * (significant vs.
13 | Cc1c(C(=O)NCCc2ccccc2)oc2c1-c1nn(Cc3ccccn3)cc1CC2 [Example 42, 8-methyl-N-(2-phenylethyl)-2-(pyridin-2-ylmethyl)-4,5-dihydro-2H-furo[2,3-g]indazole-7-carboxamide] | 1530 nM | 
14 | Cc1c(C(=O)NC[C@@H]2COCCO2)oc2c1-c1nn(C[C@H]3CN(C)CCO3)cc1CC2 [Example 102, N[(2R)-1,4-dioxan-2-ylmethyl]-8-methyl-2-{[(2R)-4-methylmorpholin-2-yl]methyl}-4,5-dihydro-2H-furo[2,3-g]indazole-7-carboxamide] | 760 nM | 
15 | Cc1ccc(Cn2cc3c(n2)-c2c(oc(C(=O)NC[C@@H]4CCCO4)c2C)CC3)c(C)n1 [Example 77, 2-[(2,6-dimethylpyridin-3-yl)methyl]-8-methyl-N-[(2S)-tetrahydrofuran-2-ylmethyl]-4,5-dihydro-2H-furo[2,3-g]indazole-7-carboxamide] | 170 nM | 
16 | Cc1ccc(Cn2cc3c(n2)-c2c(oc(C(=O)NC[C@@H]4COCCO4)c2C)CC3)cn1 [Example 76, N-[(2R)-1,4-dioxan-2-ylmethyl]-8-methyl-2-[(6-methylpyridin-3-yl)methyl]-4,5-dihydro-2H-furo[2,3-g]indazole-7-carboxamide] | 65 nM | 
17 | COc1cccc(-c2cc(CNC(=O)c3oc4c(c3C)-c3nn(Cc5ccccn5)cc3CC4)no2)c1 [Example 14, N-{[5-(3-methoxyphenyl)-1,2-oxazol-3-yl]methyl}-8-methyl-2-(pyridin-2-ylmethyl)-4,5-dihydro-2H-furo[2,3-g]indazole-7-carboxamide] | 4790 nM | 
18 | Cc1c(C(=O)NC[C@@H]2CCOC2)oc2c1-c1nn(Cc3ccccn3)cc1CC2 [Example 33-1, 8-methyl-2-(pyridin-2-ylmethyl)-N-[(3S)-tetrahydrofuran-3-ylmethyl]-4,5-dihydro-2H-furo[2,3-g]indazole-7-carboxamide] | 1890 nM | 
19 | Cc1c(C(=O)NC[C@@H]2CCCO2)oc2c1-c1nn(Cc3ccc(C(=O)NC[C@@H]4CCCO4)nc3)cc1CC2 [Example 146, 8-methyl-N-[(2S)-tetrahydrofuran-2-ylmethyl]-2-[(6-{[(2S)-tetrahydrofuran-2-ylmethyl]carbamoyl}pyridin-3-yl)methyl]-4,5-dihydro-2H-furo[2,3-g]indazole-7-carboxamide] | 47 nM | 
20 | Cc1c(C(=O)NCc2ccn(C)n2)oc2c1-c1nn(C[C@H]3COCCO3)cc1C1(CC1)C2 [Example 127, 2′-[(2S)-1,4-dioxan-2-ylmethyl]-8′-methyl-N-[(1-methyl-1H-pyrazol-3-yl)methyl]-2′,5′-dihydrospiro[cyclopropane-1,4′-furo[2,3-g]indazole]-7′-carboxamide] | 170 nM | 
